Source: ChEMBL document CHEMBL1255512, “Pyrazolo[1,5-a]pyrimidine acetamides: 4-Phenyl alkyl ether derivatives as potent ligands for the 18 kDa translocator protein (TSPO)” (Bioorg Med Chem Lett, 2010)

Assay: Displacement of [3H]Ro151788 from CBR in rat […]
Type: tissue-based

Ki [µM] | Compound
> 10 | CCC(C)N(C)C(=O)c1cc2ccccc2c(-c2ccccc2Cl)n1 (stereo not drawn) [PK-11195]
> 10 | CCN(CC)C(=O)Cc1c(-c2ccc(OC)cc2)nn2c(C)cc(C)nc12
> 10 | CCN(CC)C(=O)Cc1c(-c2ccc(OCCF)cc2)nn2c(C)cc(C)nc12 [DPA-714]
